Data reported in patent US6989148B2, “Treatment of diabetes” (priority 1994, dated 2006).
“Also recorded” adds a separate entry of the source.

Experiments:
[1] = tested on: subjects with remission phase Type I diabetes; assay: Sustacal meal with infusion of 0.75 pm/kg/min GLIP versus saline (Example 3); type: in vivo, human; conditions: 0.75 pmol/kg/min GLIP along with Sustacal meal, versus saline control; FIG. 3
Procedure: The test was conducted as described in Example 1 and blood glucose and C-peptide levels were measured. On a further test day, the subjects were studied during saline infusion after a similar Sustacal meal.

[2] = tested on: Type II diabetics; conditions: Gutniak et al. (1992), WO93/18786; cited from earlier work
[3] = tested on: Type I diabetic subjects; assay: Sustacal meal preceded by subcutaneous GLIP injection in Type I diabetics (Example 5); type: in vivo, human; conditions: 100 μg GLIP subcutaneously prior to test meal
Text: 7 Type I diabetic subjects were studied.
The results are shown in FIG. 5. *indicates statistically significant differences between treatments (p<0.05)

[4] = tested on: normal volunteers; assay: Sustacal meal preceded by subcutaneous GLIP injection in normal volunteers (Example 4); type: in vivo, human; conditions: subcutaneous GLIP (100 μg; b67 prints 1.00 μg) before Sustacal meal
Text: Results are shown in FIG. 4. *indicates statistically significant differences between treatments (p<0.05).

[5] = tested on: subjects with remission phase Type I diabetes; assay: Sustacal meal with intravenous GLIP infusion 1.2 pm/kg/min (Example 1); type: in vivo, human
Procedure: 7 subjects with remission phase Type I diabetes were studied after ingestion of a standardised meal of Sustacal (Upjohn) (delivering […]). Subjects continued their normal insulin treatment programme on the day prior to the test and, on the day of the test, omitted their morning insulin injection and arrived fasting at 8:00 am. […] Infusion was continued for 120 minutes. Blood levels of glucose, C-peptide, gastrin, glucagon and HPP were monitored by standard radioimmunoassay methods in samples taken before and at intervals during the study, up to 180 minutes. On another test day, subjects were given the Sustacal meal alone and the same analytes were similarly monitored.

[6] = tested on: Type 1 diabetic subject; assay: GLIP along with insulin before Sustacal meal, post-prandial glycaemia (Example 6); type: in vivo, human; conditions: 50 μg GLIP with 5 units insulin (half the usual dose) subcutaneously before meal; one subject; FIG. 6 Panel A
Procedure: One Type 1 diabetic subject was given GLIP along with insulin and the effects on post-prandial glycaemia observed. The subject received 5 units of insulin and 50 μg GLIP as subcutaneous injections immediately prior to ingestion of a Sustacal meal as described in Example 1. Blood levels of GLIP were monitored by a standard radioimmunoassay method.

[7] = tested on: humans and other mammals; conditions: Wettergren et al. (1993); cited from earlier work
[8] = tested on: subjects with remission phase Type I diabetes; assay: Intravenous glucose infusion with intravenous GLIP (Example 2); type: in vivo, human; conditions: IV GLIP 1.2 pm/kg/min for 60 min along with IV glucose 20 g over 60 min; FIG. 2
Procedure: Four subjects with remission phase Type I diabetes were studied during intravenous glucose infusion. Subjects prepared for the tests as described in Example 1, but received an intravenous infusion of glucose (20 g over 60 min. constant rate)instead of the Sustacal meal. […] Blood levels of glucose and C-peptide were monitored as in Example 1.

[9] = IV infusion 1.2 pm/kg/min after Sustacal meal

## Glucagon-like peptide 1(7-36)amide [GLIP]
[1]
  increase in blood glucose: increase in glucose was less than in the control experiment
  rise in C-peptide: rise in C-peptide was similar to the control experiment
[2]
  effect of combination with oral hypoglycaemic agents: synergistic effect
[3]; no morning insulin, FIG. 5 Panel A
  blood glucose levels compared to control: lowering of blood glucose levels
[3]; FIG. 5 Panel D
  pancreatic polypeptide (HPP) levels: delayed rise in pancreatic polypeptide (HPP) levels
[3]; FIG. 5 Panels B and C
  insulin secretion over control levels: no enhancement of insulin secretion over control levels
[4]
  increase in blood levels of C-peptide: delay in increase
  increase in blood levels of HPP: delay in increase
  increase in blood levels of glucose: delay in increase
  increase in blood levels of insulin: delay in increase
[5]; [9]
  blood levels of C-peptide: prevented a significant increase in blood levels of C-peptide
  plasma glucagon levels stimulated by the meal: prevented the mean rise in plasma glucagon levels
[5]; IV infusion 1.2 pm/kg/min after Sustacal meal, FIG. 1 Panel C
  secretion of pancreatic polypeptide (PP) after meal: this response was absent during GLIP infusion
[5]; IV infusion 1.2 pm/kg/min after Sustacal meal, FIG. 1 Panel E
  gastrin levels / gastrin response: normal gastrin response; also recorded: not significantly affected
[5]; IV infusion 1.2 pm/kg/min for 120 min after Sustacal meal, FIG. 1 Panel A
  blood glucose level after a meal: excellent control of blood glucose level
[6]
  blood glucose after Sustacal meal (maximum): ≤ 8 mM
[7]
  gastric emptying: delay of gastric emptying
[8]
  blood glucose level: improved control of blood glucose level
  secretion of endogenous insulin: stimulated secretion of endogenous insulin
